How the values were obtained:
KP1005 (CTX-M-14) [1] = assay: Aztreonam potentiation (MPC@4), KP1005; assay type: cell-based; conditions: BLI with aztreonam at 4 μg/mL
KP1009 (CTX-M-15) [2] = assay: organism not typed; assay type: cell-based
ec302 (TEM-10) [3] = assay: Aztreonam potentiation (MPC@4), ec302; assay type: cell-based; conditions: BLI with aztreonam at 4 μg/mL
KP1004 (KPC-2) [4] = assay: Aztreonam potentiation (MPC@4), KP1004; assay type: cell-based; conditions: BLI with aztreonam at 4 μg/mL
ECL1002 [5] = assay: Aztreonam potentiation (MPC@4), ECL1002; assay type: cell-based; conditions: BLI with aztreonam at 4 μg/mL
EC1010 (CMY-6) [6] = assay: organism not typed; assay type: cell-based
KP1005 (CTX-M-14) [7] = assay: Tigemonam potentiation (MPC@4), KP1005; assay type: cell-based; conditions: BLI with tigemonam at 4 μg/mL
KP1009 (CTX-M-15) [8] = assay: Tigemonam potentiation (MPC@4), KP1009; assay type: cell-based; conditions: BLI with tigemonam at 4 μg/mL
ec308 (SHV-5) = assay: Tigemonam potentiation (MPC@4), ec308; assay type: cell-based
KP1010 (SHV-12) = assay: Tigemonam potentiation (MPC@4), KP1010; assay type: cell-based
ec302 (TEM-10) [9] = assay: Tigemonam potentiation (MPC@4), ec302; assay type: cell-based
ECL1002 [10] = assay: Tigemonam potentiation (MPC@4), ECL1002; assay type: cell-based; conditions: BLI with tigemonam at 4 μg/mL
EC1010 (CMY-6) [11] = assay: Tigemonam potentiation (MPC@4), EC1010; assay type: cell-based; conditions: BLI with tigemonam at 4 μg/mL
CTX-M-14 = CTX-M-14 (Escherichia coli, UniProt Q9L5C7); assay: Ki, nitrocefin cleavage by purified enzyme, CTX-M-14; assay type: biochemical; conditions: nitrocefin reporter substrate; read-out: Ki (CTX-M-14, NCF)
CTX-M-14, sequence (Q9L5C7 29-291): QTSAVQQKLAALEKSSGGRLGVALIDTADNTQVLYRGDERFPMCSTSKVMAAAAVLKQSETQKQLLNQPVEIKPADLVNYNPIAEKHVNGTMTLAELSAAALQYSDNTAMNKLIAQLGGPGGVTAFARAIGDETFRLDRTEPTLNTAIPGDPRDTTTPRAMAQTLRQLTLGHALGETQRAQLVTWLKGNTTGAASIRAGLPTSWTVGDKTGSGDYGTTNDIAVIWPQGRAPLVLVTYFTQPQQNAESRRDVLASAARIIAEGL
Procedure, shortened: (§1)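 Readout: nitrocefin hydrolysis, A490 recorded every 10 sec over 10 min. Enzyme and inhibitor (varied concentrations) preincubated 10 min, RT, in reaction buffer before substrate addition.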

SHV-12 = SHV-12 (Klebsiella pneumoniae, UniProt P0AD64, E235K/G234S/L31Q); assay: Ki, nitrocefin cleavage by purified enzyme, SHV-12; assay type: biochemical; conditions: nitrocefin reporter substrate; read-out: Ki (SHV-12, NCF)
SHV-12, sequence (P0AD64 22-286 L31Q/G234S/E235K): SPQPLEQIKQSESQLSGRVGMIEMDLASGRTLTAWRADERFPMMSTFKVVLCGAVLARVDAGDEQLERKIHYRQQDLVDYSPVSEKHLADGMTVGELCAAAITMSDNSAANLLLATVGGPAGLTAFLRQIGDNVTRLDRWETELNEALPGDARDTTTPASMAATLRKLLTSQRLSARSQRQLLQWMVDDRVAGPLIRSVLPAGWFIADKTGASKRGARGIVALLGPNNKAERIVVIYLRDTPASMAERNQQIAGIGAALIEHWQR
Procedure, shortened: as §1

KPC-2 = KPC-2 (Klebsiella pneumoniae, UniProt Q9F663); assay: Ki, nitrocefin cleavage by purified enzyme, KPC-2; assay type: biochemical; conditions: nitrocefin reporter substrate; read-out: Ki (KPC-2, NCF)
KPC-2, sequence (Q9F663 25-293, looked up, species assumed): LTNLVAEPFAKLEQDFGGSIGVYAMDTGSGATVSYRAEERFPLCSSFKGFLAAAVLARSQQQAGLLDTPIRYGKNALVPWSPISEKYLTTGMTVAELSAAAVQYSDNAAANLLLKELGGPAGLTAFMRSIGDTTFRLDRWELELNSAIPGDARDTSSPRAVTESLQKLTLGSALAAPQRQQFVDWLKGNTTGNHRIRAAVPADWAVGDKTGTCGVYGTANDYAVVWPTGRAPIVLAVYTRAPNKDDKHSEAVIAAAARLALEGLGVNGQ
Procedure, shortened: as §1

P99 = P99 (Enterobacter cloacae, UniProt P05364); assay: Ki, nitrocefin cleavage by purified enzyme, P99; assay type: biochemical; conditions: nitrocefin reporter substrate; read-out: Ki (P99, NCF)
P99, sequence (P05364 21-381): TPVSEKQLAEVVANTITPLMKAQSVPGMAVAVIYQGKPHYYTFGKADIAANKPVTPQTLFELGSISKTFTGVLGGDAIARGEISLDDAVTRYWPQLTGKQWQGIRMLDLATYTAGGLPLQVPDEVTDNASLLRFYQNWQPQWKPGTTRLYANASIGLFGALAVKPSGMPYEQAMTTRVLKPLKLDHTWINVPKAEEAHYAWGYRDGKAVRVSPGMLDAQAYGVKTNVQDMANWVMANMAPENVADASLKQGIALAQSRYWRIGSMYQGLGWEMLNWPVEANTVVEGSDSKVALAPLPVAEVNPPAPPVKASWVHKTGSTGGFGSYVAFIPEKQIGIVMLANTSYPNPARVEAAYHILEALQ
Procedure, shortened: as §1

Pa AmpC = Pa AmpC (Pseudomonas aeruginosa, UniProt P24735); assay: Ki, nitrocefin cleavage by purified enzyme, Pa AmpC; assay type: biochemical; conditions: nitrocefin reporter substrate; read-out: Ki (Pa AmpC, NCF)
Pa AmpC, sequence (P24735 27-397): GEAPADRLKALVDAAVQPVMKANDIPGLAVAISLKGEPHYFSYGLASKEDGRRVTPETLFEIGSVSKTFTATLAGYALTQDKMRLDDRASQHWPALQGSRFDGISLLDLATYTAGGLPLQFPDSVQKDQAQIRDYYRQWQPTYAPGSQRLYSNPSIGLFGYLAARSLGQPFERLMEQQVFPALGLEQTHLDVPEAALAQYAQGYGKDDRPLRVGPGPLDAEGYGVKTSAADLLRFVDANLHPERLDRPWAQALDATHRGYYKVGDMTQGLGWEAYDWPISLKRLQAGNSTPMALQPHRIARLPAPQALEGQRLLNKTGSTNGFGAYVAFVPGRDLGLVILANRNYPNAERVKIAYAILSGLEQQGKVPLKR
Procedure, shortened: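 Enzyme–inhibitor mixtures, spanning various inhibitor concentrations, were held 10 min at room temperature in reaction buffer prior to nitrocefin addition. Spectrophotometric monitoring of substrate cleavage at 490 nm then ran 10 min at 10-sec intervals to yield Ki.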

OXA-48 = OXA-48 (Klebsiella pneumoniae, UniProt Q6XEC0); assay: Ki, nitrocefin cleavage by purified enzyme, OXA-48; assay type: biochemical; conditions: nitrocefin reporter substrate; read-out: Ki (OXA-48, NCF)
OXA-48, sequence (Q6XEC0 23-265, looked up, species assumed): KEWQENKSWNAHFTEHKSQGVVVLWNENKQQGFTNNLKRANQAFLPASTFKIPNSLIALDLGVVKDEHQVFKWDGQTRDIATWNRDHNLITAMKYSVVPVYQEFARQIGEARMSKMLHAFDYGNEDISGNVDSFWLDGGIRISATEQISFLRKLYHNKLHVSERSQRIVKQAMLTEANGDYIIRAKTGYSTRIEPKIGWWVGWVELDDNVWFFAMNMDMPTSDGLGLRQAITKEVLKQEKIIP
Procedure, shortened: as §1

KP1004 (KPC-2) [12] = assay: Biapenem potentiation (MPC@1), KP1004; conditions: BLI with biapenem at 1 μg/mL
KP1086 (OXA-48) = assay: Biapenem potentiation (MPC@1), KP1086; conditions: BLI with biapenem at 1 μg/mL

Row | Structure (SMILES) | AZT MPC4 CTX-M-15 KP1009 (KP1009 (CTX-M-15) [2]) | AZT MPC4 TEM-10 ec302 (ec302 (TEM-10) [3]) | AZT MPC4 KPC-2 KP1004 (KP1004 (KPC-2) [4]) | AZT MPC4 ECL1002 (ECL1002 [5]) | AZT MPC4 CMY-6 EC1010 (EC1010 (CMY-6) [6]) | TIG MPC4 CTX-M-14 KP1005 (KP1005 (CTX-M-14) [7]) | TIG MPC4 CTX-M-15 KP1009 (KP1009 (CTX-M-15) [8]) | TIG MPC4 SHV-5 ec308 (ec308 (SHV-5)) | TIG MPC4 SHV-12 KP1010 (KP1010 (SHV-12)) | TIG MPC4 TEM-10 ec302 (ec302 (TEM-10) [9]) | TIG MPC4 ECL1002 (ECL1002 [10]) | TIG MPC4 CMY-6 EC1010 (EC1010 (CMY-6) [11]) | Ki (CTX-M-14) [nM] | Ki (SHV-12) [nM] | Ki (KPC-2) [nM] | Ki (P99) [nM] | Ki (Pa AmpC) [nM] | Ki (OXA-48) [nM] | BPM MPC1 KP1004 KPC-2 (KP1004 (KPC-2) [12]) | BPM MPC1 OXA-48 KP1086 (KP1086 (OXA-48)) | other results
1 | CSCC(=O)N[C@H]1Cc2ccc(OCC(=O)O)c(C(=O)O)c2OB1O [Compound 33, (R)-7-(carboxymethoxy)-2-hydroxy-3-(2-(methylthio)acetamido)-3,4-dihydro-2H-benzo[e][1,2]oxaborinine-8-carboxylic acid] | Y (key: X: MIC of less than 1 ng/mL; Y: MIC of 1 μg/mL to 10 μg/mL; Z: MIC of greater than 10 μg/mL) | Y (MIC of 1 μg/mL to 10 μg/mL) | Y (MIC of 1 μg/mL to 10 μg/mL) | Y (MIC of 1 μg/mL to 10 μg/mL) | Y (key: X: MIC of less than 1 ng/mL; Y: MIC of 1 μg/mL to 10 μg/mL; Z: MIC of greater than 10 μg/mL) | Y (MIC of 1 μg/mL to 10 μg/mL) | Y (MIC of 1 μg/mL to 10 μg/mL) | Y (key: X: MIC of less than 1 ng/mL; Y: MIC of 1 μg/mL to 10 μg/mL; Z: MIC of greater than 10 μg/mL) | X (key: X: MIC of less than 1 μg/mL; Y: MIC of 1 μg/mL to 10 μg/mL; Z: MIC of greater than 10 μg/mL) | Z (key: X: MIC of less than 1 ng/mL; Y: MIC of 1 μg/mL to 10 μg/mL; Z: MIC of greater than 10 μg/mL) | Y (MIC of 1 μg/mL to 10 μg/mL) | Y (MIC of 1 μg/mL to 10 μg/mL) | < 1 | < 1 | > 10 | > 10 | > 10 | < 1 | X (MIC of less than 1 μg/mL) | Z (MIC of greater than 10 μg/mL) | AZT MPC4 CTX-M-14 KP1005 (KP1005 (CTX-M-14) [1]): Y (MIC of 1 μg/mL to 10 μg/mL)
2 | CSCC(=O)N[C@H]1Cc2ccc(O)c(C(=O)O)c2OB1O [Compound 34, (R)-2,7-dihydroxy-3-(2-(methylthio)acetamido)-3,4-dihydro-2H-benzo[e][1,2]oxaborinine-8-carboxylic acid] | Y (key: X: MIC of less than 1 ng/mL; Y: MIC of 1 μg/mL to 10 μg/mL; Z: MIC of greater than 10 μg/mL) | Y (MIC of 1 μg/mL to 10 μg/mL) | Y (MIC of 1 μg/mL to 10 μg/mL) | Y (MIC of 1 μg/mL to 10 μg/mL) | Y (key: X: MIC of less than 1 ng/mL; Y: MIC of 1 μg/mL to 10 μg/mL; Z: MIC of greater than 10 μg/mL) | X (MIC of less than 1 μg/mL) | Y (MIC of 1 μg/mL to 10 μg/mL) | X (key: X: MIC of less than 1 μg/mL; Y: MIC of 1 μg/mL to 10 μg/mL; Z: MIC of greater than 10 μg/mL) | X (key: X: MIC of less than 1 μg/mL; Y: MIC of 1 μg/mL to 10 μg/mL; Z: MIC of greater than 10 μg/mL) | Y (key: X: MIC of less than 1 ng/mL; Y: MIC of 1 μg/mL to 10 μg/mL; Z: MIC of greater than 10 μg/mL) | X (MIC of less than 1 μg/mL) | X (MIC of less than 1 μg/mL) | < 1 | < 1 | > 10 | 1 to 10 | > 10 | < 1 | X (MIC of less than 1 μg/mL) | Y (MIC of 1 μg/mL to 10 μg/mL) | 
3 | CSCC(=O)N[C@H]1Cc2ccc(OCCO)c(C(=O)O)c2OB1O [Compound 20, (R)-2-hydroxy-7-(2-hydroxyethoxy)-3-(2-(methylthio)acetamido)-3,4-dihydro-2H-benzo[e][1,2]oxaborinine-8-carboxylic acid] | Y (key: X: MIC of less than 1 ng/mL; Y: MIC of 1 μg/mL to 10 μg/mL; Z: MIC of greater than 10 μg/mL) | Y (MIC of 1 μg/mL to 10 μg/mL) | Y (MIC of 1 μg/mL to 10 μg/mL) | Y (MIC of 1 μg/mL to 10 μg/mL) | Y (key: X: MIC of less than 1 ng/mL; Y: MIC of 1 μg/mL to 10 μg/mL; Z: MIC of greater than 10 μg/mL) | Y (MIC of 1 μg/mL to 10 μg/mL) | X (MIC of less than 1 μg/mL) | X (key: X: MIC of less than 1 μg/mL; Y: MIC of 1 μg/mL to 10 μg/mL; Z: MIC of greater than 10 μg/mL) | X (key: X: MIC of less than 1 μg/mL; Y: MIC of 1 μg/mL to 10 μg/mL; Z: MIC of greater than 10 μg/mL) | Z (key: X: MIC of less than 1 ng/mL; Y: MIC of 1 μg/mL to 10 μg/mL; Z: MIC of greater than 10 μg/mL) | X (MIC of less than 1 μg/mL) | X (MIC of less than 1 μg/mL) | < 1 | < 1 | > 10 | > 10 | > 10 | < 1 | X (MIC of less than 1 μg/mL) | Z (MIC of greater than 10 μg/mL) | 
4 | CSCC(=O)N[C@H]1Cc2ccc(Sc3nncn3C)c(C(=O)O)c2OB1O [Compound 35, (R)-2-hydroxy-7-(4-methyl-4H-1,2,4-triazol-3-ylthio)-3-(2-(methylthio)acetamido)-3,4-dihydro-2H-benzo[e][1,2]oxaborinine-8-carboxylic acid] | Y (key: X: MIC of less than 1 ng/mL; Y: MIC of 1 μg/mL to 10 μg/mL; Z: MIC of greater than 10 μg/mL) | Y (MIC of 1 μg/mL to 10 μg/mL) | Y (MIC of 1 μg/mL to 10 μg/mL) | Y (MIC of 1 μg/mL to 10 μg/mL) | Y (key: X: MIC of less than 1 ng/mL; Y: MIC of 1 μg/mL to 10 μg/mL; Z: MIC of greater than 10 μg/mL) | Y (MIC of 1 μg/mL to 10 μg/mL) | Y (MIC of 1 μg/mL to 10 μg/mL) | X (key: X: MIC of less than 1 μg/mL; Y: MIC of 1 μg/mL to 10 μg/mL; Z: MIC of greater than 10 μg/mL) | X (key: X: MIC of less than 1 μg/mL; Y: MIC of 1 μg/mL to 10 μg/mL; Z: MIC of greater than 10 μg/mL) | Y (key: X: MIC of less than 1 ng/mL; Y: MIC of 1 μg/mL to 10 μg/mL; Z: MIC of greater than 10 μg/mL) | Y (MIC of 1 μg/mL to 10 μg/mL) | Y (MIC of 1 μg/mL to 10 μg/mL) | < 1 | < 1 | > 10 | > 10 | > 10 | < 1 | X (MIC of less than 1 μg/mL) | Z (MIC of greater than 10 μg/mL) | AZT MPC4 CTX-M-14 KP1005 (KP1005 (CTX-M-14) [1]): Y (MIC of 1 μg/mL to 10 μg/mL)
5 | COc1ccc2c(c1C(=O)O)OB(O)[C@@H](NC(=O)c1nnc(N)s1)C2 [Compound 28, (R)-3-(5-amino-1,3,4-thiadiazole-2-carboxamido)-2-hydroxy-7-methoxy-3,4-dihydro-2H-benzo[e][1,2]oxaborinine-8-carboxylic acid] | Y (key: X: MIC of less than 1 ng/mL; Y: MIC of 1 μg/mL to 10 μg/mL; Z: MIC of greater than 10 μg/mL) | Y (MIC of 1 μg/mL to 10 μg/mL) | Y (MIC of 1 μg/mL to 10 μg/mL) | Y (MIC of 1 μg/mL to 10 μg/mL) |  | Y (MIC of 1 μg/mL to 10 μg/mL) | Y (MIC of 1 μg/mL to 10 μg/mL) | X (key: X: MIC of less than 1 μg/mL; Y: MIC of 1 μg/mL to 10 μg/mL; Z: MIC of greater than 10 μg/mL) | X (key: X: MIC of less than 1 μg/mL; Y: MIC of 1 μg/mL to 10 μg/mL; Z: MIC of greater than 10 μg/mL) | Y (key: X: MIC of less than 1 ng/mL; Y: MIC of 1 μg/mL to 10 μg/mL; Z: MIC of greater than 10 μg/mL) | Y (MIC of 1 μg/mL to 10 μg/mL) | X (MIC of less than 1 μg/mL) | < 1 | < 1 | > 10 | 1 to 10 | 1 to 10 | < 1 | Y (MIC of 1 μg/mL to 10 μg/mL) | Z (MIC of greater than 10 μg/mL) | AZT MPC4 CTX-M-14 KP1005 (KP1005 (CTX-M-14) [1]): Y (MIC of 1 μg/mL to 10 μg/mL)
